Series [1] is described as follows: NOVARTIS: Cytotoxicity against human hepatocellular carcinoma cell line (Huh7). It is filed as toxicity, cell-based, Huh-7. The following applies: Huh7 cells (hepatocellular carcinoma cell line).
Series [2] deals with Plasmodium falciparum. As to the kind of experiment: NOVARTIS: Inhibition of Plasmodium falciparum W2 (drug-resistant) proliferation in erythrocyte-based infection assay. It is filed as functional, organism-based. The following applies: Plasmodium falciparum, W2; read-out: EC50.
Series [3] relates to Plasmodium falciparum. As to the kind of experiment: NOVARTIS: Inhibition of Plasmodium falciparum 3D7 (drug-susceptible) proliferation in erythrocyte-based infection assay. It is filed as functional, organism-based. The conditions noted are these: Plasmodium falciparum, 3D7.

For orientation: CC50 means the concentration at which the toxic effect on the cells reaches its halfway point. Read a high CC50 as better tolerance by the cells. Broadly, the EC50 is the concentration needed to bring the measured effect to its halfway point.

`CN(C)C(=O)O[n+]1ccc(N(C)C)cc1` came in with a CC50 in series [1] of over 10000 nM. Further, the EC50 in the series on Plasmodium falciparum [2] was over 897 nM; in the series with Plasmodium falciparum [3] it was over 990 nM.
On the same counts, the results for `CCN1CCN(CC(O)COc2ccc(OC)cc2)CC1` (configuration not stated) are over 100000 nM, over 9190 nM and 2810 nM.
The compound `Oc1ccccc1Nc1nc(NCc2ccccc2)c2ccccc2n1` gave a 50% cytotoxic concentration (CC50) in series [1] of 12500 nM. The EC50 in the series with Plasmodium falciparum [2] was found to be 1120 nM; in the series on Plasmodium falciparum [3] it was 277 nM.
The corresponding values for `O=c1[nH]c(N2CCCC2)nc2c1CCN(Cc1coc3ccccc3c1=O)C2` are over 10000 nM, over 896 nM and over 1250 nM.
`Cc1nc2ccccc2c(=O)n1-c1ccc([N+](=O)[O-])cc1` showed a CC50 in series [1] of over 10000 nM. For the same compound, the EC50 in the series with Plasmodium falciparum [2] was determined as 896 nM; in the series on Plasmodium falciparum [3], 765 nM.
In the case of `CCCCCN(C(=O)c1ccc(C)cc1)C(C)c1nc2ccccc2c(=O)n1-c1ccccc1CC` (configuration not stated), the half-maximal cytotoxic concentration (CC50) in series [1] is over 10000 nM. For the same compound, the 50% effective concentration (EC50) is 895 nM with Plasmodium falciparum [2] and over 1620 nM in the series with Plasmodium falciparum [3].
`COc1cc(/C=C(\C#N)c2nc3ccccc3[nH]2)ccc1OCc1ccccc1F` displayed a CC50 in series [1] of over 10000 nM. In addition, the EC50 with Plasmodium falciparum [2] is 919 nM; in the series with Plasmodium falciparum [3], over 1190 nM.
On the same counts, the results for `O=C(NCCCN1CCCC1=O)c1cccn2c(=O)c3ccc(Cl)cc3nc12` are over 10000 nM, over 918 nM and over 1350 nM.
In series [1], `C=CCNC(=O)c1cc(OCc2ccccc2)c(OCc2ccccc2)c(OCc2ccccc2)c1` displayed a cytotoxic concentration (CC50) of over 100000 nM. Besides, the EC50 in the series on Plasmodium falciparum [2] was 9180 nM; in the series on Plasmodium falciparum [3], 10800 nM.
`CCOc1ccc(C=NNC(=O)CCn2nnc3ccccc32)cc1` showed a half-maximal cytotoxic concentration (CC50) in series [1] of over 13600 nM. Besides, the concentration for a half-maximal effect (EC50) in the series with Plasmodium falciparum [2] is over 1250 nM; in the series with Plasmodium falciparum [3], over 1040 nM.
On the same counts, the results for `CCOc1ccc(C(=O)Nc2cc(OC)ccc2OC)cc1` are over 10000 nM, over 917 nM and over 1250 nM.
In the case of `CCCCCN(C(=O)Nc1ccccc1OC)C(C)c1nc2ccccc2c(=O)n1-c1ccccc1OCC` (configuration not stated), the CC50 in series [1] is over 10000 nM. The EC50 worked out at 917 nM in the series with Plasmodium falciparum [2] and 843 nM with Plasmodium falciparum [3].
Regarding `CCOc1ccc(C2=NC3(CCN(C(C)C)CC3)NC(c3cc(Cl)ccc3O)C2)cc1` (configuration not stated), in series [1], it took 59900 nM to reach half-maximal cytotoxicity (CC50). For the same compound, the concentration for a half-maximal effect (EC50) in the series on Plasmodium falciparum [2] was determined as 5480 nM; with Plasmodium falciparum [3], 7180 nM.
In the case of `Fc1ccc(-n2cc(-c3ccccc3)[n+]3c2SCC3)cc1`, the cytotoxic concentration (CC50) in series [1] was over 10000 nM. Moreover, the EC50 is over 911 nM in the series on Plasmodium falciparum [2] and over 965 nM with Plasmodium falciparum [3].
In turn, `CCCCNCCN1CCN(c2cc(OC)cc(OC)c2)C[C@@H]1Cc1ccccc1` yielded a half-maximal cytotoxic concentration (CC50) in series [1] of 10300 nM. The figures for the EC50 with Plasmodium falciparum [2] and in the series on Plasmodium falciparum [3] were 938 nM and over 1250 nM, respectively.
`O=C(CN1CCCC1C(c1ccccc1)c1ccccc1)N1CCSCC1` (configuration not stated): it took 12000 nM to reach half-maximal cytotoxicity in series [1] (CC50). The results for the EC50 in the series on Plasmodium falciparum [2] and in the series with Plasmodium falciparum [3] were over 1080 nM and over 1250 nM, respectively.
The corresponding values for `CCOC(=O)c1c(N)n(-c2ccc(NC(=O)c3cccc([N+](=O)[O-])c3)cc2)c2nc3ccccc3nc12` are 19400 nM, 1740 nM and 320 nM.
With `COc1cccc(NC(=O)c2ccc3oc(=O)c(S(=O)(=O)c4ccccc4)cc3c2)c1`, the CC50 in series [1] is over 10000 nM. Moreover, the 50% effective concentration (EC50) in the series with Plasmodium falciparum [2] is over 898 nM; in the series on Plasmodium falciparum [3], over 1250 nM.
In turn, `N#Cc1c(N)nc2sc(C(=O)c3ccc(F)cc3)c(N)c2c1-c1ccccc1` displayed a CC50 in series [1] of over 10000 nM. Moreover, the EC50 was over 915 nM with Plasmodium falciparum [2] and over 1250 nM in the series with Plasmodium falciparum [3].
As for `CC(=O)c1ccc(OCCSc2nc3c(N)ncnc3[nH]2)cc1`, in series [1], the CC50 is over 100000 nM. Also, the EC50 was over 9150 nM with Plasmodium falciparum [2] and over 11200 nM in the series with Plasmodium falciparum [3].
Turning to `Cc1nc2c(-c3ccccc3)c(C)nn2c(C)c1CC(=O)NCc1ccccn1`, in series [1], the CC50 is over 100000 nM. Further, the EC50 in the series with Plasmodium falciparum [2] was 9140 nM; with Plasmodium falciparum [3] it was over 12500 nM.
`CCOc1ccc(NC(=O)CSc2nc3cc(OCC)ccc3[nH]2)cc1`: the CC50 in series [1] is over 13800 nM. Also, the concentration giving a half-maximal response (EC50) in the series on Plasmodium falciparum [2] was over 1250 nM; in the series with Plasmodium falciparum [3] it was 900 nM.
In series [1], `Cc1cc(C)n(N=Cc2cccc(Cl)c2)c(=O)c1C#N` showed a cytotoxic concentration (CC50) of over 100000 nM. In addition, the concentration for a half-maximal effect (EC50) with Plasmodium falciparum [2] was 9060 nM; in the series on Plasmodium falciparum [3] it was over 12500 nM.
Turning to `Cc1c(C(=O)N2CCN(c3cccc(Cl)c3)CC2)sc2ncnc(N(C)c3ccccc3)c12`, the CC50 in series [1] was over 10000 nM. Further, the EC50 in the series with Plasmodium falciparum [2] was over 906 nM; in the series on Plasmodium falciparum [3] it was over 723 nM.
The corresponding values for `CCOc1ccccc1C1NC(=O)NC(C)=C1C(=O)OCC(F)(F)C(F)(F)F` (configuration not stated) are over 10000 nM, over 913 nM and over 1250 nM.
Compound `Cc1ccc(C=Cc2ccc3ccccc3[n+]2C)cc1` yielded a CC50 in series [1] of 16300 nM. The EC50 in the series on Plasmodium falciparum [2] was 1480 nM; in the series on Plasmodium falciparum [3], 59.4 nM.
On the same counts, the results for `O=C1c2ccccc2C(=O)C12C(c1ccc(Br)cc1)N(c1ccccc1)C1(C(=O)c3ccccc3C1=O)C2c1ccc(Br)cc1` (configuration not stated) are over 10000 nM, over 914 nM and 510 nM.
In series [1], `CC[n+]1c(/C=C2\C=C(C)CC(C)C2)sc2ccccc21` (configuration not stated) yielded a CC50 of over 10000 nM. The concentration for a half-maximal effect (EC50) is over 913 nM in the series on Plasmodium falciparum [2] and over 1140 nM in the series with Plasmodium falciparum [3].
`O=C(C1CCC1)N1CCN(c2ccccn2)CC1` registered a CC50 in series [1] of over 10000 nM. Further, the EC50 is over 918 nM in the series with Plasmodium falciparum [2] and over 1250 nM with Plasmodium falciparum [3].
On the same counts, the results for `COc1ccc(/C=C2/SC(Nc3ccc(F)cc3)=NC2=O)c(OC)c1` are over 10000 nM, 916 nM and 1060 nM.
The compound `Cc1nc(N2CCC(C)CC2)c2c(C)c(C(=O)Nc3ccc(F)cc3)sc2n1` showed a cytotoxic concentration (CC50) in series [1] of over 10000 nM. Also, the results for the EC50 with Plasmodium falciparum [2] and in the series with Plasmodium falciparum [3] were over 912 nM and 792 nM, respectively.
As to `CC(C)=CCC/C(C)=C/CCC(C)NCCN1CCNCC1` (configuration not stated), in series [1], the 50% cytotoxic concentration (CC50) is over 10000 nM. Besides, the results for the EC50 in the series with Plasmodium falciparum [2] and in the series on Plasmodium falciparum [3] were 911 nM and over 1100 nM, respectively.
The corresponding values for `CC[n+]1c(/C=C/C=C2\N(C)c3ccccc3C2(C)C)n(Cc2ccccc2)c2ccccc21` are 2420 nM, 219 nM and 355 nM.
In series [1], `O=[N+]([O-])c1ccc(NN=Cc2cccs2)c(S(=O)(=O)N2CCCCCC2)c1` came in with a cytotoxic concentration (CC50) of over 10000 nM. For the same compound, the EC50 in the series on Plasmodium falciparum [2] was over 899 nM; in the series on Plasmodium falciparum [3] it was over 1250 nM.
In turn, `COCCN(CC(O)CNC(=O)c1ccc2ccccc2n1)S(=O)(=O)c1c(C)noc1C` (configuration not stated) displayed a CC50 in series [1] of over 10000 nM. Further, the EC50 with Plasmodium falciparum [2] was over 895 nM; in the series on Plasmodium falciparum [3] it was over 90 nM.
Take `Cc1ccccc1CNC(=O)c1oc2c(c1C)-c1[nH]ncc1CC2`: the half-maximal cytotoxic concentration (CC50) in series [1] was over 10000 nM. The half-maximal effective concentration (EC50) with Plasmodium falciparum [2] is over 914 nM; with Plasmodium falciparum [3], over 1250 nM.
Take `COc1ccc(C2=C(c3ccc(OC)cc3)C3(c4ccccc4)C(=O)C2(c2ccccc2)C2C(=O)N(c4ccc(C)c(Br)c4)C(=O)C23)cc1` (configuration not stated): in series [1], the cytotoxic concentration (CC50) was over 10000 nM. Further, the results for the EC50 in the series with Plasmodium falciparum [2] and in the series on Plasmodium falciparum [3] were 901 nM and 734 nM, respectively.
The corresponding values for `O=C(Nc1ccc(Nc2cc([N+](=O)[O-])ccc2O)c2c1C(=O)c1ccccc1C2=O)c1ccccc1` are over 10000 nM, over 901 nM and over 1250 nM.
The corresponding values for `CN(c1ccc(Cl)cc1)S(=O)(=O)c1ccc2[nH]cc(C(=O)NCCC3=CCCCC3)c(=O)c2c1` are over 10000 nM, over 911 nM and over 1250 nM.

The values are drawn from ChEMBL document CHEMBL1156829 (Proc Natl Acad Sci U S A, 2008).
